The values below come from PubChem BioAssay (NCI).

Some test systems named below: CAKI-1 renal; COLO 205 colon; DU-145 prostate; HCC-2998 colon; HCT-15 colon; HL-60(TB) leukemia; MOLT-4 leukemia; NCI-H23 lung; NCI-H460 lung; NCI/ADR-RES ovarian; OVCAR-8 ovarian; PC-3 prostate; RPMI-8226 leukemia; SF-268 CNS; SK-MEL-28 melanoma; T-47D breast; TK-10 renal; UO-31 renal; A549 NSCLC; MALME-3M melanoma.
Common to all, as to assay: NCI tumour cell line growth inhibition, 48 h

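1) Cells in 96-well plates. 2) Compound, 48 h, 5 concentrations. 3) Linear interpolation between surrounding doses. 4) Unreached endpoint = highest concentration. TGI: total growth inhibition.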

Take `Cn1c(=O)c2c(nc3sc4ncccc4c(=O)n32)n(C)c1=O`: the TGI in the test with CAKI-1 renal, in the test on COLO 205 colon, in the test with DU-145 prostate, with HCC-2998 colon, in the test on HCT-15 colon and with HL-60(TB) leukemia was more than 100 µM each time. The TGI in the test on MOLT-4 leukemia, in the test with NCI-H23 lung, in the test on NCI-H460 lung, with NCI/ADR-RES ovarian, with OVCAR-8 ovarian and with PC-3 prostate was more than 100 µM throughout. Further, the TGI with RPMI-8226 leukemia, in the test with SF-268 CNS, in the test on SK-MEL-28 melanoma, with T-47D breast, in the test on TK-10 renal and in the test with UO-31 renal was more than 100 µM each time.

As for `COc1cc(C2SC(N)=Nc3c2c(C)nn3C(=O)Cc2ccccc2)ccc1O` (stereo not drawn), the TGI with A549 NSCLC, in the test on CAKI-1 renal, in the test with COLO 205 colon, in the test on DU-145 prostate, with HCC-2998 colon and with HCT-15 colon was more than 100 µM each time. Further, the TGI with HL-60(TB) leukemia, in the test on MALME-3M melanoma, with MOLT-4 leukemia, with NCI-H23 lung, in the test with NCI-H460 lung and in the test with OVCAR-8 ovarian was more than 100 µM each time. Also, the TGI in the test on PC-3 prostate, with RPMI-8226 leukemia, in the test with SF-268 CNS, with SK-MEL-28 melanoma, in the test on T-47D breast and in the test on TK-10 renal was more than 100 µM throughout. The same compound had a TGI in the test with UO-31 renal of more than 100 µM.

Turning to `Cc1c(C)c2ccc(O)cc2[nH]c1=O`, the TGI with A549 NSCLC, in the test on CAKI-1 renal, in the test on COLO 205 colon, with DU-145 prostate, with HCC-2998 colon and in the test with HCT-15 colon was more than 100 µM each time. Besides, the TGI in the test with MOLT-4 leukemia, with NCI-H23 lung, in the test on NCI-H460 lung, with NCI/ADR-RES ovarian, with OVCAR-8 ovarian and with PC-3 prostate was more than 100 µM throughout. The TGI in the test on RPMI-8226 leukemia, with SK-MEL-28 melanoma, in the test with T-47D breast and in the test on UO-31 renal was more than 100 µM throughout.

Regarding `C/C(=C\[C@H]1C[C@@H]([C@@H]2CC[C@]34C[C@]23C=C[C@@H]2[C@@]3(C)CC=C5C[C@@H](c6ccccc6)OC[C@]5(C)[C@@H]3C[C@@H](O)[C@]24C)C(=O)O1)CO`, the TGI was more than 100 µM in the test on A549 NSCLC; 28.3 µM in the test with CAKI-1 renal; 5.11 µM in the test on COLO 205 colon; more than 67.9 µM in the test with DU-145 prostate; more than 26.4 µM in the test on HCC-2998 colon; 25.3 µM with HCT-15 colon. The TGI with MALME-3M melanoma was 82.5 µM; with MOLT-4 leukemia, more than 100 µM; in the test on NCI-H23 lung, 36 µM; with NCI/ADR-RES ovarian, more than 100 µM; in the test with OVCAR-8 ovarian, more than 100 µM; in the test on PC-3 prostate it was more than 55.6 µM. The TGI with RPMI-8226 leukemia was more than 96.4 µM; in the test with SF-268 CNS, more than 70.1 µM; in the test on SK-MEL-28 melanoma it was more than 100 µM; in the test on T-47D breast, more than 100 µM; in the test on TK-10 renal it was more than 56 µM; in the test with UO-31 renal, 9.54 µM.

Turning to `O=C(NO)c1ccc(OCc2ccccc2)cc1`, the TGI in the test with A549 NSCLC was more than 100 µM; with CAKI-1 renal it was 54.2 µM; with COLO 205 colon, 77.6 µM; in the test on DU-145 prostate, 68.9 µM; in the test with HCC-2998 colon, more than 100 µM; in the test with HCT-15 colon, 45 µM. The TGI in the test on HL-60(TB) leukemia was more than 100 µM; with MOLT-4 leukemia it was more than 100 µM; in the test with NCI-H23 lung, 28.1 µM; with NCI-H460 lung, more than 100 µM; with NCI/ADR-RES ovarian it was 32.1 µM; with OVCAR-8 ovarian, 28.7 µM. For the same compound, the TGI is more than 100 µM with PC-3 prostate; more than 100 µM in the test with RPMI-8226 leukemia; more than 100 µM with SF-268 CNS; more than 100 µM in the test on SK-MEL-28 melanoma; 81.5 µM in the test with T-47D breast; more than 100 µM with TK-10 renal. In addition, in the test with UO-31 renal, the TGI turned out to be 72.8 µM.

Consider `C=C1C(=O)O[C@H]2[C@H]3O[C@@H](C[C@@H]12)[C@](C)(O)CCCC(C)=CCC[C@H]3C`, for which the TGI in the test on A549 NSCLC was 33.6 µM; in the test with CAKI-1 renal, 28.5 µM; with COLO 205 colon it was 21 µM; in the test with DU-145 prostate, 39.6 µM; in the test with HCC-2998 colon, 23.6 µM; in the test with HCT-15 colon, 84.9 µM. In addition, the TGI is 8.09 µM with MOLT-4 leukemia; 35.3 µM in the test with NCI-H23 lung; 30.5 µM in the test on NCI-H460 lung; 22.7 µM in the test with NCI/ADR-RES ovarian; 21 µM with OVCAR-8 ovarian; 25.7 µM with PC-3 prostate. In addition, the TGI with RPMI-8226 leukemia amounted to 17.4 µM; in the test with SF-268 CNS, 20.7 µM; in the test with SK-MEL-28 melanoma, 25.9 µM; in the test with T-47D breast it was 44.6 µM; in the test with TK-10 renal it was 14.6 µM; in the test on UO-31 renal, 23.5 µM.

In the case of `COc1ccc2nc(-c3ccc(O)cc3)cn2c1`, the TGI in the test on A549 NSCLC, with CAKI-1 renal, in the test on COLO 205 colon, in the test on DU-145 prostate, in the test on HCT-15 colon and in the test with MALME-3M melanoma was more than 100 µM throughout. The TGI in the test on MOLT-4 leukemia, with NCI-H23 lung, in the test on NCI-H460 lung, in the test on NCI/ADR-RES ovarian, in the test on OVCAR-8 ovarian and with PC-3 prostate was more than 100 µM each time. For the same compound, the TGI with RPMI-8226 leukemia, in the test on SF-268 CNS, in the test with SK-MEL-28 melanoma, in the test with T-47D breast, in the test on TK-10 renal and in the test with UO-31 renal was more than 100 µM each time.

`O=C(O)C1CCCN1Cc1ccc2c(c1)OCO2` (stereo not drawn): the TGI with A549 NSCLC, in the test on CAKI-1 renal, in the test on COLO 205 colon, in the test with DU-145 prostate, in the test with HCT-15 colon and in the test with MALME-3M melanoma was more than 100 µM each time. For the same compound, the TGI in the test with MOLT-4 leukemia, with NCI-H23 lung, in the test on NCI-H460 lung, with NCI/ADR-RES ovarian, with OVCAR-8 ovarian and in the test with PC-3 prostate was more than 100 µM throughout. For the same compound, the TGI in the test with RPMI-8226 leukemia, in the test on SF-268 CNS, with SK-MEL-28 melanoma, in the test with T-47D breast, in the test with TK-10 renal and in the test with UO-31 renal was more than 100 µM in each case.

Turning to `CC1OC2OC3C(OCC(O)C3O)OC(=O)[C@]34CCC(C)(C)CC3C3=CCC5[C@@]6(C)C[C@H](O)[C@H](OC7OC(CO)C(O)C(O)C7OC7OC(COC(=O)CC(C)(O)CC(=O)OC1C(O)C2O)C(O)C(O)C7O)[C@@](C)(CO)C6CC[C@@]5(C)[C@]3(C)CC4` (stereo partly drawn), the TGI with A549 NSCLC amounted to 2.63 µM; with CAKI-1 renal, 2.74 µM; with COLO 205 colon, 2.98 µM; in the test with DU-145 prostate, 3.02 µM; with HCC-2998 colon, 2.63 µM; with HCT-15 colon it was 2.91 µM. For the same compound, the TGI was 2.87 µM in the test on HL-60(TB) leukemia; 3.08 µM in the test with NCI-H23 lung; 4.45 µM with NCI-H460 lung; 11.9 µM in the test with NCI/ADR-RES ovarian; 3.1 µM in the test with OVCAR-8 ovarian; 2.56 µM with PC-3 prostate. Further, the TGI was 2.97 µM in the test on SF-268 CNS; 2.79 µM with SK-MEL-28 melanoma; 7.23 µM in the test with T-47D breast; 2.89 µM in the test on TK-10 renal; 2.52 µM with UO-31 renal.

Turning to `O=C(O)CCCC#CCCCC(=O)O`, the TGI in the test on A549 NSCLC, in the test with CAKI-1 renal, in the test with COLO 205 colon, in the test with DU-145 prostate, with HCC-2998 colon and with HCT-15 colon was more than 100 µM throughout. For the same compound, the TGI in the test on MALME-3M melanoma, with NCI-H23 lung, in the test with NCI-H460 lung, with NCI/ADR-RES ovarian, in the test with OVCAR-8 ovarian and in the test with PC-3 prostate was more than 100 µM throughout. The TGI with SF-268 CNS, with SK-MEL-28 melanoma, in the test on T-47D breast, in the test on TK-10 renal and with UO-31 renal was more than 100 µM throughout.

Take `COc1ccc(N=C2C(=Nc3ccc(OC)cc3)N(c3ccccc3[N+](=O)[O-])C(=S)N2c2ccc(OC)cc2)cc1`: the TGI was more than 100 µM in the test with A549 NSCLC; more than 100 µM in the test with CAKI-1 renal; 30.8 µM in the test with COLO 205 colon; more than 100 µM in the test on DU-145 prostate; more than 100 µM in the test with HCC-2998 colon; more than 100 µM with HCT-15 colon. Besides, the TGI in the test on MOLT-4 leukemia, in the test on NCI-H23 lung, in the test with NCI/ADR-RES ovarian, in the test on OVCAR-8 ovarian, with PC-3 prostate and with RPMI-8226 leukemia was more than 100 µM throughout. Also, the TGI with SF-268 CNS, in the test on SK-MEL-28 melanoma, with T-47D breast, in the test on TK-10 renal and in the test with UO-31 renal was more than 100 µM in each case.

As for `CCCC[Si](CCCC)(CCCC)O[C@@H](/C=C/C(=O)OCC)[C@H](Cc1ccccc1)O[Si](CCCC)(CCCC)CCCC`, the TGI in the test on A549 NSCLC, in the test with CAKI-1 renal, in the test on COLO 205 colon, in the test on DU-145 prostate, in the test on HCC-2998 colon and with HCT-15 colon was more than 100 µM in each case. Also, the TGI with MALME-3M melanoma, with MOLT-4 leukemia, in the test on NCI-H23 lung, in the test on NCI-H460 lung, in the test on NCI/ADR-RES ovarian and in the test with OVCAR-8 ovarian was more than 100 µM in each case. Moreover, the TGI in the test on PC-3 prostate, with RPMI-8226 leukemia, in the test on SF-268 CNS, with T-47D breast, in the test with TK-10 renal and with UO-31 renal was more than 100 µM in each case.
